Laboratory results reported in patent US8993725B2, “Notch-based fusion proteins and uses thereof” (The Trustees of Columbia University in the City of New York, priority 2004, dated 2015).
Entries after “also recorded” stand apart in the source; their conditions may differ. Blank lines part the entries; values can stand above or below the molecule they belong to.

What was measured:
Type in all cases: cell-based, Human
[1] = tested on: HUVEC; assay: HUVEC proliferation (CCK-8 kit); details: SFM with 1% FBS, 4 days
Description: These Figures show proliferation of Ad-VEGF165-transduced HUVEC. HUVEC were transduced with Ad-VEGF165 at the indicated dosages. Ad-LacZ was also co-infected to make the same total amount of adenovirus at a MOI of 40 pfu/cell. HUVEC were suspended in SFM supplemented with 1% FBS and then plated at 1×10^4 cells/well in 24-well multi-well plates with 0.4 ml of medium. After 4 days, cell numbers were determined using the CCK-8 kit and the results are indicated as the ratio of cell numbers determined to the number of control cells, which were transduced with Ad-GFP at a MOI of 40 pfu/cell. […] Ad-VEGF-transduced HUVEC were treated with SU5416 at the indicated dosages.
These Figures show the effect of alteration of Notch signaling on cell proliferation. The cells were transduced with the indicated adenoviruses. Ad-GFP was also co-infected to make the same total amount of adenovirus at a MOI of 60 pfu/cell. After 4 days, cell numbers were determined using the CCK-8 kit and results are indicated as the ratio of cell numbers determined to the number of control cells, which were transduced with AD-GFP at MOI of 60 pfu/cell. […] Transduced HUVEC were suspended in complete medium and then plated at 1×10^4 cells/well in 24-well multiwell plates with 0.4 ml of indicated medium (□: Ad-N1IC; ▪: Ad-N1ECDFc). […]

[2] = tested on: Ad-N1IC-transduced HUVEC; assay: Notch-induced budding of Ad-N1IC-transduced HUVEC on gel; details: for Effect of receptor tyrosine kinase inhibitors on budding of Ad-N1IC-HUVEC: inhibitors at 1 μM, Ad-N1IC 40 MOI, complete medium
Description: HUVEC were transduced with either Ad-LacZ or Ad-N1IC at 40 MOI. FIGS. 23A-23C show the effect of inhibitors for receptor tyrosine kinases on Notch-induced HUVEC budding. FIG. 23A is a photograph of budding of Ad-N1IC-transduced HUVEC treated with PD166866, ZD1893 at 1 μM and SU5416 at 0.5 μM. […] FIGS. 23F-G show promotion of Notch-induced HUVEC budding with PlGF stimulation. Ad-N1IC-transduced HUVEC were cultured on collagen gel with SFM, instead of complete medium, in the absence or presence of 50 ng/ml PlGF. […] FIGS. 23H-I show the effect of Flt-1 siRNA transfection on Flt1 expression. Ad-N1IC-transduced HUVEC were transfected with 200 pmol of either control (CT) or Flt-1 siRNA. […] Ad-N1IC-transduced HUVEC were transfected with either 100 or 200 pmol of siRNA and cultured on collagen gel for 2 days.
Either Ad-LacZ or Ad-N1IC-HUVEC at a MOI of 40 pfu/cell were cultured on collagen gel for 5 days in the absence or presence of GM6001 at 50 μm.
To test whether Notch signaling is down-stream of VEGF, we evaluated three distinct inhibitors for receptor tyrosine kinases, including VEGFR on N1IC-induced HUVEC budding, because three growth factors existed in complete medium (FIG. 23A-C). […] Thus, we examined whether activation of Notch signaling affected Flt1/VNGFR1 expression in HUVEC, because SU5416 inhibits both Flt1 and Flk1 kinase activity (15). […] PlGF increased the number of Ad-N1IC-HUVEC buds by 150%, compared to the absence of PlGF (FIG. 23F). Moreover, PlGF increased HUVEC buds containing multiple filopodia by 250% (FIG. 23G).

[3] = tested on: Notch signaling (CBF1 promoter activity) in HUVEC; assay: VEGF-induced Notch signaling, CBF1 promoter / CSL-luciferase reporter activity in HUVEC; details: Ad-VEGF-transduced HUVEC, 20 MOI
Description: To determine VEGF-induced Notch signaling, HUVEC which were infected with adenovirus were used. HUVEC plated 1-day prior in 6 well plates at 8.0×10^5 were infected with either Ad-LacZ as control or Ad-VEGF at indicated m.o.i. in the presence or absence of Ad-N1ECD/Fc. Two days after infection, infected HUVEC were re-seeded into 24-well plate at 1.5×10^5 cell in triplicate and cultured for 24 hours, and then transfected with 12.5 ng pRL-SV40 (Promega) and 137.5 ng pGA981-6 using Effectene transfection reagent (Qiagen). Cells were harvested either 1 or 2 days post-transfection and luciferase activity was determined by using the Dual-Luciferase® Reporter Assay System (Promega).
One can measure Notch signaling function by measuring transcriptional activity of CBF1 promoter, which is activated by binding of Notch-IC to CBF1. We measured CBF1 promoter activity in HUVEC which was infected with adenovirus encoding VECF-165 at different MOI (FIG. 6). Induction of CBF1 promoter was clearly detected in Ad-VEGF-infected HUVEC, compared to Ad-LacZ-infected cells in the MOI dependent manner. […] Thus VEGF induced Notch signaling activity.

- Effect of receptor tyrosine kinase inhibitors on budding of Ad-N1IC-HUVEC [2]: clearly inhibited
Molecule: Cc1cc(C)c(/C=C2\C(=O)Nc3ccccc32)[nH]1 [SU5416, reference compound]
- Proliferation of Ad-VEGF-transduced HUVEC [1]: inhibitory effect
- Dose-dependency of effect on budding versus viability of Ad-N1IC-HUVEC ([2]; lower concentrations): selectively inhibited budding of Ad-N1IC-HUVEC with less reduction of viability at lower concentrations
- Effect of compound treatment on VEGF-induced CSL-luciferase reporter activity [3]: decreased VEGF-induced CSL-luciferase reporter activity

Molecule: COc1cc2ncnc(Nc3ccc(F)c(Cl)c3)c2cc1OCCCN1CCOCC1 [ZD1893]
- Effect of receptor tyrosine kinase inhibitors on budding of Ad-N1IC-HUVEC [2]: Neither PD166866 or ZD1893 affected budding

Molecule: COc1cc(OC)cc(-c2cc3cnc(N)nc3nc2NC(=O)NC(C)(C)C)c1 [PD166866]
- Effect of receptor tyrosine kinase inhibitors on budding of Ad-N1IC-HUVEC [2]: Neither PD166866 or ZD1893 affected budding

Molecule: CNC(=O)[C@H](Cc1c[nH]c2ccccc12)NC(=O)[C@@H](CC(=O)NO)CC(C)C [GM6001]
- Effect on budding of Ad-N1IC-HUVEC on collagen gel ([2]; GM6001 at 50 μm, 5 days): inhibition of budding; also recorded: clearly decreased budding
- Effect on budding of Ad-N1IC-HUVEC on fibrin gel ([2]; data not shown): clearly decreased budding

B1: PlGF: a selective ligand for Flt1 (protein, UniProt P49763 19-221, looked up)
Placenta growth factor: LPAVPPQQWALSAGNGSSEVEVVPFQEVWGRSYCRALERLVDVVSEYPSEVEHMFSPSCVSLLRCTGCCGDENLHCVPVETANVTMQLLKIRSGDRPSYVELTFSQHVRCECRHSPGRQSPDMPGDFRADAPSFLPPRRSLPMLFRMEWGCALTGSQSAVWPSSPVPEEIPRMHPGRNGKKQQRKPLREKMKPERCGDAVPRR
- Increase of HUVEC buds containing multiple filopodia ([2]; 50 ng/ml PlGF, SFM, collagen gel): 250%
- Increase of the number of Ad-N1IC-HUVEC buds ([2]; 50 ng/ml PlGF, SFM, collagen gel, compared to the absence of PlGF): 150%
